The source of these data is US12005265B2, “Compositions and methods to modulate cell activity” (THE ROCKEFELLER UNIVERSITY, priority 2014, dated 2024).

Test [1] concerns αGFP-TRPV1. The following applies: HEK cells transfected with αGFP-TRPV1; 2APB; vs 0.85-fold.
Protocol: Transfected cells were washed three times in PBS then loaded with Fluo-4 3 μM (Invitrogen) in the presence of sulfinpyrazone 500 μM (Sigma) for 60 min at room temperature. Cells were washed again in PBS then incubated for 30 min in sulfinpyrazone in PBS. Cells were washed and then imaged in calcium imaging buffer. Imaging was performed using a Deltavision personal DV imaging system (Applied Precision, Issawaq, WA) equipped with a custom-made ceramic lens.
Test [2] has as its system HEK or N38 cells. The test is described as follows: Whole cell voltage clamp recordings of cultured HEK and N38 cells. It counts as cell-based. To be noted: 2APB 200 μM, −60 mV. On the procedure:
Neurons expressing GFP were visualized using epifluorescence on an upright Zeiss Axioskop 2FS Plus microscope equipped with a Hamamatsu CCD camera. External solution contained (in mM): 140 NaCl, 2.8KCl, 2CaC2, 1 MgCl2, 1HEPES, 10 glucose, pH 7.4.
I-V relationships were obtained by measuring current responses to increasing 5 mV steps in the presence of 200 μM 2APB. Cells were held at −60 mV. Magnetic activation was applied by bringing a permanent magnet within 500 microns of the recorded cell for 5 seconds with a micromanipulator. Recordings were acquired with an Axopatch 200B amplifier, filtered to 2 kHz and digitized at 10 kHz (pClamp software, Molecular Devices). Data were analyzed using IGOR Pro (Wavemetrics) and NeuroMatic. (neuromatic.thinkrandom.com). Series resistance was monitored and not compensated for. If there was more than a 20% change in series resistance the recording was excluded.

Test [3] deals with N38 cells. The experiment in a line: Multiphoton chloride imaging (MQAE) of stably transfected N38 cells. It counts as cell-based, mouse. How it is done:
Stably transfected cells were washed with Krebs-HEPES buffer 3 times then loaded with MQAE (N-(Ethoxycarbonylmethyl)-6-Methoxyquinolinium Bromide, 5 mM, Invitrogen) for 60 min at room temperature. […] Imaging was performed using LSM 510 NLO inverted multiphoton and confocal system (Zeiss) using a 40× objective with two photon excitation at 750 nm. […] Imaging was repeated in the presence of Ruthenium red (100 μM) (2 occasions for each condition). Images were analyzed using Image J software.

In test [4] the test system is N38 cells. The test is described as follows: Effect of RF on pCREB and c-fos in N38 cells. It counts as cell-based, mouse. To be noted: N38 cells expressing αGFP-TRPV1/GFP-ferritin. How it is done: Effect of RF or magnet on pCREB and cFos: 24 h prior to the study, cells were placed in 1% FBS medium at 32° C. to ensure minimal activation of TRPV1 and calcium dependent pathways. On the day of study, cells were incubated in 500 μl of calcium imaging buffer at room temperature (control) or in a RF field (31 mT) at room temperature. For magnet treatment, cells were treated with a static magnetic field (280 mT) for 5 seconds every 2 minutes for 1 hour at room temperature. After 60 min, the cells were placed on ice, the supernatant removed and cells lysed with RIPA buffer (40 μl, pCREB) or lysis buffer (100 μl Agilent Absolutely RNA microprep kit) and frozen at −80° C. until assay or RNA purification. Each study was repeated on 3 occasions each with 4 replicates. Control studies with N38 cells alone were performed on 2 occasions with 4 replicates.
Protein was isolated by lysis in RIPA buffer and centrifugation at 16000 rpm, 4° C. for 5 min before addition of 4× Laemelli buffer. Samples were denatured for 5 mins at 95° C. and frozen at −20° C. before assay. Samples (15 ul) were run on a 4-15% gel then transferred to PVDF membrane. Membranes were blocked (3% dried milk in TBST buffer) for 1 hour at room temperature then incubated in primary antibody (Phospho-CREB (Ser133) (87G3) Rabbit mAb (1:1000) or beta Actin Rabbit Ab (1:1000), Cell Signaling) in TBST overnight at 4 degrees. […]

In test [5] the test system is N38 cells. The test is described as follows: Calcium imaging of stably transfected N38 cells under RF or magnet. It counts as cell-based, mouse. The following applies: N38 cells expressing αGFP-TRPV1/GFP-ferritin. On the procedure: TRPV1 is a non-selective cation channel with relatively high permeability to divalent cations, particularly calcium (Ca2+>Mg2+>Na+K+Cs+)^55. […] Cells were washed again in PBS then incubated for 15-30 min in sulfinpyrazone in PBS. […] Images were acquired every 3 seconds for 3 minutes. […] Imaging was repeated in the presence of Ruthenium red (100 μM) (2 occasions for each condition). Images were analyzed using Image J software.
For studies to examine the effects of increasing RF or magnet field strength, to assess the effects of short RF treatment (10s) on calcium responses and to examine the kinetics of the calcium response, cells were loaded with FluoForte 20 μM (Enzo Life Sciences, Lorrach, Germany) in the presence of Pluronic F-127 (0.02% vol/vol) and sulfinpyrazone 500 μM. […] Imaging was performed as above with images acquired every second for 1 minute. Cells were imaged without treatment (4 occasions), before and during RF treatment at 31, 27 and 23 mT (4 occasions each), before and during application of a neodymium magnet at 280 or 130 mT (magnet 2 mm or 5 mm from the cells respectively, 4 occasions each) and before, during and after 10 second treatment with RF (31 mT) (4 occasions). Images were analyzed using Image J software.

[6] abbreviates: N38 cells stably transfected with αGFP-TRPV1^Mutant/GFP-ferritin.

As to `NCCOB(c1ccccc1)c1ccccc1` [2APB, 2-aminoethoxydiphenyl borate], the “change in Fluo-4 fluorescence (intracellular calcium)” value in test [1] was 2.0 fold. For the same compound, the “current induced by TRPV1 agonist” value is “inward current” in test [2] (HEK cell expressing αGFP-TRPV1/GFP-ferritin) and “outward current” in test [2] (HEK cell expressing αGFP-TRPV1^Mutant/GFP-ferritin). Besides, in test [3] (setting [6]), the “level of intracellular chloride measured by MQAE quenching” value is on record as “significantly increased”.

As to `N.N.N.N.N.N.N.N.N.N.N.N.N.N.[Cl-].[Cl-].[Cl-].[Cl-].[Cl-].[Cl-].[O-2].[O-2].[Ru+3].[Ru+3].[Ru+4]` [ruthenium red], in test [4], the “effect on RF-induced increase of pCREB and c-fos” value is on record as “blocked”. For the same compound, in test [5], the “effect on RF-induced rise of intracellular calcium” value was “blocked” and the “effect on magnet-induced increase of intracellular calcium” value is on record as “blocked”. Further, the “effect on magnet-induced increase of intracellular chloride” value in test [3] (N38 cells expressing αGFP-TRPV1^Mutant/GFP-ferritin) is listed as “blocked”. Besides, the “effect on 2APB-induced increase of intracellular chloride” value in test [3] (setting [6]) is listed as “blocked”.
